Test results: patent publication US6300065A, “Yeast cell surface display of proteins and uses thereof” (Board of Trustees of the University of Illinois, priority 1998, dated 2001)

Columns and labels:
[1] = test system: 4-4-20 anti-fluorescein scFv, wild-type, yeast surface displayed Aga2p fusion; assay: Competitive dissociation of labeled antigen from yeast surface displayed scFv, followed by flow cytometry; type: binding; conditions: 5-aminofluorescein as competitor
Method: (§1) Yeast cells bearing plasmid pCT202 were grown and labeled with anti-c-myc mAb 9E10 and FITC-dextran or biotin-fluorescein, as described. A fraction of the labeled population was analyzed flow cytometrically to determine the initial level of fluorescence. Non-fluorescent competitor (5-aminofluorescein) was added to a final concentration of approximately […] (~1000-fold excess) and the FITC or PE fluorescence of the c-myc positive cell population was followed as a function of time at room temperature (21-23° C.) on a Coulter Epics XL. Data were fitted as an exponential decay. The probability that a polyvalent antigen is bound to the cell as a function of time is given by P=1-(1-e^-kt)^N, where N is the valency, k is the kinetic rate constant for dissociation, and t is time. For long times t, this reduces to P=Ne^-kt. Thus, extrapolation of data for long t to time zero yields P=N, or a fluorescence intensity of Fext =N Fo, where Fext is the extrapolated fluorescence at the time of competitor addition and Fo is the actual initial fluorescence.

[2] = test system: 4-4-20 anti-fluorescein scFv mutant 4M1.2, yeast surface displayed Aga2p fusion; assay: as above; type: binding; conditions: 23° C., 5-aminofluorescein as competitor
Method: as §1

[3] = biological target: 4-4-20 anti-fluorescein antibody; conditions: stated in discussion, no method given; cited from earlier work
[4] = test system: 4-4-20 anti-fluorescein scFv mutant 4M1.2; assay: Soluble fluorescein dissociation kinetics by spectrofluorometry (fluorescence quenching, whole cells displaying scFv); type: binding; conditions: mutant 4M1.2 vs wild-type 4-4-20 scFv
Method: (§2) Binding to soluble fluorescein (FDS) was assayed by observing fluorescence quenching by whole cells displaying scFv. Cells were suspended at 2×10^7 cells/ml in TBS+0.1% BSA in a quartz cuvette thermostatted at 23° C. and titrated with FDS over a range of 0-7.5 nM. […] Control cells displaying an irrelevant scFv were titrated to obtain a slope for a two-parameter fit of an equilibrium binding model to the data, yielding equilibrium constants and effective scFv concentrations. Following the equilibrium titration, 5-aminofluorescein was added to 1 mM and the change in fluorescence of the sample followed with time to determine koff for FDS.

[5] = test system: 4-4-20 anti-fluorescein scFv mutant 4M1.1; assay: as above; type: binding; conditions: mutant 4M1.1 vs wild-type 4-4-20 scFv
Method: as §2

Row | SMILES | monovalent dissociation rate constant (koff) for fluorescein-biotin ([1]; 21° C.) [s⁻¹] | koff for fluorescein-biotin ([1]; 23° C., wild-type) [s⁻¹] | koff for fluorescein-biotin [2] [s⁻¹] | Kd [3] [nM] | improvement of soluble fluorescein dissociation kinetics relative to wild-type [4] [fold] | improvement of soluble fluorescein dissociation kinetics relative to wild-type [5] [fold]
1 | O=C(CCCCCNC(=O)CCCC[C@@H]1SC[C@@H]2NC(=O)N[C@@H]21)NCCCCCNC(=S)Nc1ccc2c(c1)C(=O)OC21c2ccc(O)cc2Oc2cc(O)ccc21 [fluorescein-biotin] | 0.0039 | 0.005 | 0.0028 |  |  | 
2 | O=C1OC2(c3ccc(O)cc3Oc3cc(O)ccc32)c2ccccc21 [fluorescein] |  |  |  | 0.4 | 2.2 | 2.2
